This passage reports GI50 results from patent US12558428B2, “Heterobifunctional compounds and their use in treating disease” (Halda Therapeutics OpCo, Inc., priority 2024, dated 2026).

What all share (assay type): cell-based
For assay [1], the system named is MCF7 cells (ATCC #HTB-22). Put plainly: Cellular growth inhibition assay, MCF7 cells purchased from ATCC. Particulars: Table 8-A, MCF7 cells purchased from ATCC, six days, CellTiter-Glo, read-out: GI50. In outline:
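GI50 values come from a four-parameter fit of CellTiter-Glo 2.0 luminescence after six days of compound exposure at 37° C. Seeding density depended on the source: 225 cells/well for ECACC MCF7, 1,500 for ATCC. Medium was RPMI 1640 with 10% FBS and 0.2 U/ml insulin.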

Assay [2] concerns T-Rex 293 cells having increased expression of estrogen receptor alpha protein. In words: Cellular growth inhibition assay, T-Rex 293 cells, (+) doxycycline. The following applies: Table 7-A, T-Rex 293 cells with doxycycline (increased ERα expression), 72 hours, CellTiter-Glo, read-out: (+) Dox GI50. In outline: (§1)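 Growth of a doxycycline-inducible ERα T-Rex 293 clone, induced or not with 3 ng/mL doxycycline, was followed for 72 h with test compound in hormone-depleted medium. CellTiter-Glo luminescence gave GI50.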
(In general: ATP-based viability assays read luminescence as a measure of living cells.)

The test system of assay [3] is T-Rex 293 cells lacking increased expression of estrogen receptor alpha protein. In words: Cellular growth inhibition assay, T-Rex 293 cells, (−) doxycycline. The following applies: Table 7-A, T-Rex 293 cells without doxycycline (lacking increased ERα expression), 72 hours, CellTiter-Glo, read-out: (−) Dox GI50. In outline:
as §1

Where two headings read alike, the source gives them in different places.

By GI50 is commonly meant the concentration at which growth is held to half of that of the control.

Regarding `Cc1sc2c(c1C)C(c1ccc(N3CCC(CN4CCN(c5ccc([C@H]6c7ccc(O)cc7CC[C@H]6c6ccccc6)cc5)CC4)CC3)cc1)=N[C@H](Cc1ncco1)c1nnc(C)n1-2` [III-72], the 50% growth inhibitory concentration (GI50) in assay [1], in assay [2] and in assay [3] was 500 to 2500 nM throughout.

As to `Cc1sc2c(c1C)C(c1ccc(N3CCC(CN4CCN(c5ccc([C@@H]6c7ccc(O)cc7CC[C@@H]6c6ccccc6)cc5)CC4)CC3)cc1)=N[C@@H](Cc1ncco1)c1nnc(C)n1-2` [III-73], the 50% growth inhibitory concentration (GI50) in assay [1] (Homo sapiens, MCF7, 144 h) was less than 50 nM; in assay [2] (T-REx-293, 72 h), less than 50 nM; in assay [3] (T-REx-293, 72 h), 500 to 2500 nM.

Regarding `Cc1sc2c(c1C)C(c1ccc(N3CCC(CN4CCN(c5ccc([C@@H]6c7ccc(O)cc7CC[C@@H]6c6ccccc6)cc5)CC4)CC3)cc1)=N[C@H](Cc1ncco1)c1nnc(C)n1-2` [III-74], the GI50 in assay [1] (Homo sapiens, MCF7, 144 h) was 50 to 500 nM; in assay [2] (T-REx-293, 72 h) it was less than 50 nM; in assay [3] (T-REx-293, 72 h) it was 50 to 500 nM.

Turning to `Cc1sc2c(c1C)C(c1ccc(N3CCC4(CC3)CN(CCOc3ccc([C@@H]5c6ccc(O)cc6CC[C@@H]5c5ccccc5)cc3)C4)cc1)=N[C@@H](C)c1nnc(C)n1-2` [III-78], the 50% growth inhibitory concentration (GI50) was 50 to 500 nM in assay [1] (Homo sapiens, MCF7, 144 h); 50 to 500 nM in assay [2] (T-REx-293, 72 h); 50 to 500 nM in assay [3] (T-REx-293, 72 h).

Turning to `Cc1sc2c(c1C)C(c1ccc(N3CCC4(CC3)CN(CCOc3ccc([C@H]5c6ccc(O)cc6CC[C@H]5c5ccccc5)cc3)C4)cc1)=N[C@@H](C)c1nnc(C)n1-2` [III-79], the GI50 in assay [1] (Homo sapiens, MCF7, 144 h) was in the range of 50 to 500 nM; in assay [2] (T-REx-293, 72 h) it was 50 to 500 nM; in assay [3] (T-REx-293, 72 h) it was 50 to 500 nM.

For `Cc1sc2c(c1C)C(c1ccc(N3CCN(CCC4CN(c5ccc([C@@H]6c7ccc(O)cc7CC[C@@H]6c6ccccc6)cc5)C4)CC3)cc1)=N[C@@H](C)c1nnc(C)n1-2` [III-80], the GI50 in assay [1] (Homo sapiens, MCF7, 144 h) is more than 2500 nM; in assay [2] (T-REx-293, 72 h), 50 to 500 nM; in assay [3] (T-REx-293, 72 h), 500 to 2500 nM.

Take `Cc1sc2c(c1C)C(c1ccc(N3CCN(CC4CCN(c5ccc([C@@H]6c7ccc(O)cc7CC[C@@H]6c6ccccc6)cc5)CC4)CC3)cc1)=N[C@@H](CC(=O)O)c1nnc(C)n1-2` [III-81]: the GI50 is 50 to 500 nM in assay [1] (Homo sapiens, MCF7, 144 h); 50 to 500 nM in assay [2] (T-REx-293, 72 h); more than 2500 nM in assay [3] (T-REx-293, 72 h).

With `Cc1sc2c(c1C)C(c1ccc(C34COC(CN5CCN(c6ccc([C@@H]7c8ccc(O)cc8CC[C@@H]7c7ccccc7)cc6)CC5)(C3)C4)cc1)=N[C@@H](C)c1nnc(C)n1-2` [III-82], the GI50 in assay [1] (Homo sapiens, MCF7, 144 h) fell in the range of 50 to 500 nM; in assay [2] (T-REx-293, 72 h), 50 to 500 nM; in assay [3] (T-REx-293, 72 h) it was 500 to 2500 nM.

`Cc1sc2c(c1C)C(c1ccc(C34COC(CN5CCN(c6ccc([C@H]7c8ccc(O)cc8CC[C@H]7c7ccccc7)cc6)CC5)(C3)C4)cc1)=N[C@@H](C)c1nnc(C)n1-2` [III-83]: the GI50 fell in the range of 50 to 500 nM in assay [1] (Homo sapiens, MCF7, 144 h); 50 to 500 nM in assay [2] (T-REx-293, 72 h); 500 to 2500 nM in assay [3] (T-REx-293, 72 h).

On to `Cc1sc2c(c1C)C(c1ccc(N3CC(CCN4CC(COc5ccc([C@@H]6c7ccc(O)cc7CC[C@@H]6c6ccccc6)cc5)C4)C3)cc1)=N[C@@H](C)c1nnc(C)n1-2` [III-84], for which the GI50 in assay [1] (Homo sapiens, MCF7, 144 h) was 50 to 500 nM; in assay [2] (T-REx-293, 72 h), less than 50 nM; in assay [3] (T-REx-293, 72 h), 500 to 2500 nM.

With `Cc1sc2c(c1C)C(c1ccc(N3CC(CCN4CC(COc5ccc([C@H]6c7ccc(O)cc7CC[C@H]6c6ccccc6)cc5)C4)C3)cc1)=N[C@@H](C)c1nnc(C)n1-2` [III-85], the GI50 in assay [1] (Homo sapiens, MCF7, 144 h) fell in the range of 50 to 500 nM; in assay [2] (T-REx-293, 72 h), 50 to 500 nM; in assay [3] (T-REx-293, 72 h), 500 to 2500 nM.

Turning to `Cc1sc2c(c1C)C(c1ccc(OC3CCN(CC4CCN(c5ccc([C@@H]6c7ccc(O)cc7CC[C@@H]6c6ccccc6)cc5)CC4)CC3)cc1)=N[C@@H](C)c1nnc(C)n1-2` [III-86], the 50% growth inhibitory concentration (GI50) was in the range of 50 to 500 nM in assay [1] (Homo sapiens, MCF7, 144 h); 50 to 500 nM in assay [2] (T-REx-293, 72 h); 500 to 2500 nM in assay [3] (T-REx-293, 72 h).

Turning to `Cc1sc2c(c1C)C(c1ccc(N3CCC(CN4CC5(CCN(c6ccc([C@@H]7c8ccc(O)cc8CC[C@@H]7c7ccccc7)cc6)CC5)C4)CC3)cc1)=N[C@@H](C)c1nnc(C)n1-2` [III-87], the GI50 in assay [1] (Homo sapiens, MCF7, 144 h) is less than 50 nM; in assay [2] (T-REx-293, 72 h), less than 50 nM; in assay [3] (T-REx-293, 72 h) it was 50 to 500 nM.

Consider `Cc1sc2c(c1C)C(c1ccc(N3CCC4(CC3)CN(CC3CCN(c5ccc([C@@H]6c7ccc(O)cc7CC[C@@H]6c6ccccc6)cc5)CC3)C4)cc1)=N[C@@H](C)c1nnc(C)n1-2` [III-88], for which the concentration for 50% growth inhibition (GI50) in assay [1] (Homo sapiens, MCF7, 144 h) was less than 50 nM; in assay [2] (T-REx-293, 72 h), less than 50 nM; in assay [3] (T-REx-293, 72 h), 50 to 500 nM.

Consider `Cc1sc2c(c1C)C(c1ccc(N3CC(CN4CCN(c5ccc([C@@H]6c7ccc(O)cc7CC[C@@H]6c6ccccc6)cc5)CC4)C3)cc1)=N[C@@H](C)c1nnc(C)n1-2` [III-89], for which the 50% growth inhibitory concentration (GI50) was 50 to 500 nM in assay [1] (Homo sapiens, MCF7, 144 h); less than 50 nM in assay [2] (T-REx-293, 72 h); 500 to 2500 nM in assay [3] (T-REx-293, 72 h).

Turning to `Cc1sc2c(c1C)C(c1ccc(OC3CC4(CCN(c5ccc([C@@H]6c7ccc(O)cc7CC[C@@H]6c6ccccc6)cc5)CC4)C3)cc1)=N[C@@H](C)c1nnc(C)n1-2` [III-90], the GI50 is 50 to 500 nM in assay [1] (Homo sapiens, MCF7, 144 h); 500 to 2500 nM in assay [2] (T-REx-293, 72 h); more than 2500 nM in assay [3] (T-REx-293, 72 h).

Turning to `Cc1sc2c(c1C)C(c1ccc(N3CCC(CN4CC(COc5ccc([C@@H]6c7ccc(O)cc7CC[C@@H]6c6ccccc6)cc5)C4)CC3)cc1)=N[C@@H](Cc1ncco1)c1nnc(C)n1-2` [III-91], the GI50 in assay [1] (Homo sapiens, MCF7, 144 h) was less than 50 nM; in assay [2] (T-REx-293, 72 h), 50 to 500 nM; in assay [3] (T-REx-293, 72 h), 500 to 2500 nM.

In the case of `Cc1sc2c(c1C)C(c1ccc(N3CCC(CN4CC(COc5ccc([C@H]6c7ccc(O)cc7CC[C@H]6c6ccccc6)cc5)C4)CC3)cc1)=N[C@@H](Cc1ncco1)c1nnc(C)n1-2` [III-92], the GI50 is 50 to 500 nM in assay [1] (Homo sapiens, MCF7, 144 h); 50 to 500 nM in assay [2] (T-REx-293, 72 h); 50 to 500 nM in assay [3] (T-REx-293, 72 h).

`Cc1sc2c(c1C)C(c1ccc(C3CN(CCN4CC(COc5ccc([C@@H]6c7ccc(O)cc7CC[C@@H]6c6ccccc6)cc5)C4)C3)cc1)=N[C@@H](C)c1nnc(C)n1-2` [III-95]: the concentration for 50% growth inhibition (GI50) is less than 50 nM in assay [1] (Homo sapiens, MCF7, 144 h); less than 50 nM in assay [2] (T-REx-293, 72 h); 50 to 500 nM in assay [3] (T-REx-293, 72 h).

Consider `Cc1sc2c(c1C)C(c1ccc(C3CN(CCN4CC(COc5ccc([C@H]6c7ccc(O)cc7CC[C@H]6c6ccccc6)cc5)C4)C3)cc1)=N[C@@H](C)c1nnc(C)n1-2` [III-96], for which the GI50 fell in the range of 50 to 500 nM in assay [1] (Homo sapiens, MCF7, 144 h); 50 to 500 nM in assay [2] (T-REx-293, 72 h); 50 to 500 nM in assay [3] (T-REx-293, 72 h).

For `Cc1sc2c(c1C)C(c1ccc(N3CC4(CN(CC5CCN(c6ccc([C@@H]7c8ccc(O)cc8CC[C@@H]7c7ccccc7)cc6)CC5)C4)C3)cc1)=N[C@@H](C)c1nnc(C)n1-2` [III-97], the GI50 in assay [1] (Homo sapiens, MCF7, 144 h) is less than 50 nM; in assay [2] (T-REx-293, 72 h) it was less than 50 nM; in assay [3] (T-REx-293, 72 h), 500 to 2500 nM.

Take `Cc1sc2c(c1C)C(c1ccc(CCN3CC4(CCN(c5ccc([C@@H]6c7ccc(O)cc7CC[C@@H]6c6ccccc6)cc5)CC4)C3)cc1)=N[C@@H](C)c1nnc(C)n1-2` [III-98]: the concentration for 50% growth inhibition (GI50) in assay [1] (Homo sapiens, MCF7, 144 h) is 50 to 500 nM; in assay [2] (T-REx-293, 72 h), less than 50 nM; in assay [3] (T-REx-293, 72 h), 500 to 2500 nM.

In the case of `Cc1sc2c(c1C)C(c1ccc(N3CC(CN4CC(Oc5ccc([C@@H]6c7ccc(O)cc7CC[C@@H]6c6ccccc6)cc5)C4)C3)cc1)=N[C@@H](C)c1nnc(C)n1-2` [III-99], the GI50 in assay [1] (Homo sapiens, MCF7, 144 h) was in the range of 50 to 500 nM; in assay [2] (T-REx-293, 72 h), 50 to 500 nM; in assay [3] (T-REx-293, 72 h) it was 50 to 500 nM.

`Cc1sc2c(c1C)C(c1ccc(N3CC(CN4CC(Oc5ccc([C@H]6c7ccc(O)cc7CC[C@H]6c6ccccc6)cc5)C4)C3)cc1)=N[C@@H](C)c1nnc(C)n1-2` [III-100]: the GI50 in assay [1] (Homo sapiens, MCF7, 144 h) is 50 to 500 nM; in assay [2] (T-REx-293, 72 h), 50 to 500 nM; in assay [3] (T-REx-293, 72 h), 50 to 500 nM.
